These are literature values, as cited in patent EP0890570A2, “Tertiary alkyl primary amines and process for preparing the same” (ROHM AND HAAS COMPANY, priority 1997, dated 1999).

The conditions of the data set: conventional comparison amines, stated without source or method.

SMILES strings stand for the structures.

As to `CC(C)CCCCCCN` [iso-nonylamine], the pKa is 10.

For the compound `CCCCCCCCCN` [n-nonylamine], the pKa was 10.
